As a reminder, the Ki is the equilibrium dissociation constant of an inhibitor or competing ligand from its target. A lower Ki goes with a stronger hold on the target.

The assay addresses Glutamate receptor ionotropic, NMDA 1 (Rattus norvegicus, UniProt P35439). Nature of the assay: ChEBML_140329. How it is done: In vitro affinity of compound for the glycinergic site associated with NMDA receptor was assessed by inhibition of the binding of [3H]glycine

Consider `O=C(O)c1[nH]c2cc(Cl)cc(Cl)c2c1/C=C1\CCN(c2ccccc2)C1=O`, for which the affinity corresponds to a Ki of 7.5 nM.

Consider `O=C(O)c1[nH]c2cc(Cl)cc(Cl)c2c1/C=C1\CCCN(c2ccccc2)C1=O`, for which the Ki was found to be 7.3 nM. The Ki values of the last two compounds are within 1.5-fold of each other.
